System: 11th -round pool RNA
Assay: RNA-liposome binding in the presence of a potential competitor (SEPHACRYL S-1000 gel filtration)
Details: 5 mM competitor; 11th-round pool RNA incubated with liposomes

## NCCO [ethanolamine]
  RNA binding to phosphatidylcholine liposomes in the presence of competitor: did not interfere with binding

From patent publication US6225063A, “RNA channels in biological membranes” (University Technology Corporation, priority 1999, dated 2001)
